The source of these data is the supplement of paper PMC9663587.
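Wherever GR50, 72 h is given: breast cancer and non-malignant breast epithelial cell lines, Deep Dye Drop or Dye Drop imaging, nine half-log doses, GR normalized to time-zero plates and DMSO-only controls.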

Compound in the first assay: T1, CC(=O)c1c(C)c2cnc(Nc3ccc(N4CCN(CCOCCOCCOCCNC(=O)COc5cccc6c5C(=O)N(C5CCC(=O)NC5=O)C6=O)CC4)cn3)nc2n(C2CCCC2)c1=O [BSJ-03-123]
Assay: not given
Conditions: not given
In the case of EFM19, the “GR50, 72 h” value came to 1.23 µM.
As to EVSAT, the “GR50, 72 h” value came out at 3.31 µM.
Still for that read-out and setting: then HCC38, with 0.0453 µM; and HCC70, with 4.15 µM; and HCC1143, with 1.87 µM.
Consider HCC1395, for which the “GR50, 72 h” value was 1.12 µM.

Compound in the next assay: CC1=CN2C(=O)C=C(N=C2C(=C1)C(C)NC3=CC=CC=C3)N4CCOCC4 [TGX221]
Assay: not given
Conditions: not given
Regarding EFM19, the “GR50, 72 h” value was greater than 10 µM.
Still for that read-out and setting: in the case of EVSAT it was 1.39 µM; in that of HCC38, greater than 10 µM; in that of HCC70, 0.0912 µM.
HCC1143: the “GR50, 72 h” value was greater than 10 µM.
In the case of HCC1395, the “GR50, 72 h” value is 8.42 µM.

Compound in the next assay: CCOc1cc2ncc(C#N)c(Nc3ccc(OCc4ccccn4)c(Cl)c3)c2cc1NC(=O)/C=C/CN(C)C [Neratinib/HKI272]
Assay: not given
Conditions: not given
Regarding EFM19, the “GR50, 72 h” value is greater than 3.16 µM.
As to EVSAT, the “GR50, 72 h” value is greater than 3.16 µM.
On to HCC38, for which the “GR50, 72 h” value was 3.15 µM.
The same measure, in the same setting: in the case of HCC70 it was 0.16 µM.
Same read-out and setting: in the case of HCC1143 it was 0.672 µM; in that of HCC1395, 0.958 µM.

Compound in a further assay: CN(C)C/C=C/C(=O)Nc1ccc(C(=O)Nc2cccc(Nc3ncc(Cl)c(-c4c[nH]c5ccccc45)n3)c2)cc1 [THZ1]
Assay: not given
Conditions: not given
Take EFM19: the “GR50, 72 h” value came out at 0.383 µM.
In the case of EVSAT, the “GR50, 72 h” value was 0.0571 µM.
The same measure, in the same setting: then HCC38, with 0.0239 µM; and HCC70, with 0.0148 µM.
For the cell line HCC1143, the “GR50, 72 h” value was 0.0265 µM.
Same read-out and setting: then HCC1395, with 0.022 µM.

Compound in a further assay: CN(C)C/C=C/C(=O)Nc1ccc(O[C@@H]2CCC[C@@H](Nc3ncc(Cl)c(-c4c[nH]c5ccccc45)n3)C2)cc1 [BSJ-01-175]
Assay: not given
Conditions: not given
For the cell line EFM19, the “GR50, 72 h” value came to 1.51 µM.
Still for that read-out and setting: then EVSAT, with 0.146 µM; and HCC38, with 0.13 µM.
For the cell line HCC70, the “GR50, 72 h” value is 0.0192 µM.
On the same count and under the same terms, in the case of HCC1143 it was 0.0506 µM; in that of HCC1395, 0.015 µM.

Compound in another assay: CN(C)CC[C@H](CSc1ccccc1)Nc1ccc(S(=O)(=O)NC(=O)c2ccc(N3CCN(Cc4ccccc4-c4ccc(Cl)cc4)CC3)cc2)cc1[N+](=O)[O-] [ABT-737]
Assay: not given
Conditions: not given
For the cell line EFM19, the “GR50, 72 h” value is 8.35 µM.
On the same count and under the same terms, then EVSAT, with greater than 10 µM; and HCC38, with 0.998 µM; and HCC70, with 2.78 µM.
On the same count and under the same terms, in the case of HCC1143 it was 6.19 µM; in that of HCC1395, greater than 10 µM.

Compound in a further assay: CN1CCN(CCOc2cc(OC3CCOCC3)c3c(Nc4c(Cl)ccc5c4OCO5)ncnc3c2)CC1 [Saracatinib/AZD0530]
Assay: not given
Conditions: not given
On to EFM19, for which the “GR50, 72 h” value was found to be 3.5 µM.
On the same count and under the same terms, then EVSAT, with 2.69 µM.
The same measure, in the same setting: in the case of HCC38 it was greater than 10 µM; in that of HCC70, 0.0644 µM.
For the cell line HCC1143, the “GR50, 72 h” value came to 3.03 µM.
The same measure, in the same setting: in the case of HCC1395 it was 3.76 µM.

Compound in another assay: CN1CC[C@H](c2c(O)cc(O)c3c(=O)cc(-c4ccccc4Cl)oc23)[C@H](O)C1 [Flavopiridol]
Assay: not given
Conditions: not given
For EFM19, the “GR50, 72 h” value was 0.284 µM.
Still for that read-out and setting: in the case of EVSAT it was 0.369 µM; in that of HCC38, 0.139 µM; in that of HCC70, 0.0784 µM.
Turning to HCC1143, the “GR50, 72 h” value is 0.17 µM.
The same measure, in the same setting: in the case of HCC1395 it was 0.126 µM.

Compound in a further assay: CNCc1ccc(-c2[nH]c3cc(F)cc4c3c2CCNC4=O)cc1 [Rucaparib]
Assay: not given
Conditions: not given
In the case of EFM19, the “GR50, 72 h” value is greater than 10 µM.
Same read-out and setting: then EVSAT, with greater than 10 µM.
On the same count and under the same terms, in the case of HCC38 it was greater than 10 µM; in that of HCC70, greater than 10 µM; in that of HCC1143, greater than 10 µM.
Same read-out and setting: then HCC1395, with 0.957 µM.

Compound in the next assay: COc1ccc2c(c1)[C@]1(C[C@H]1c1ccc3c(/C=C/c4ccc(CN5C[C@@H](C)O[C@@H](C)C5)cc4)n[nH]c3c1)C(=O)N2
Assay: not given
Conditions: not given
As for EFM19, the “GR50, 72 h” value came out at 0.0156 µM.
Still for that read-out and setting: in the case of EVSAT it was 0.00784 µM.
With HCC38, the “GR50, 72 h” value was 0.00325 µM.
On the same count and under the same terms, in the case of HCC70 it was 0.00349 µM; in that of HCC1143, 0.00523 µM; in that of HCC1395, 0.00377 µM.

Compound in another assay: C=CC(=O)Nc1ccc(C(=O)Nc2[nH]nc3c2CN(C(=O)N[C@H](CN(C)C)c2ccccc2)C3(C)C)cc1 [YKL-5-124]
The experiment in a line: GR value, 72 h; higher = faster growth (1 = untreated, <0 = killing).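 Further: breast cancer and non-malignant breast epithelial lines, nine half-log doses, viable cells counted by Hoechst and LIVE/DEAD dye imaging versus time-zero plates and DMSO controls.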 As to conditions: 0.001 µM.
In the case of EFM19, the GR value came to 0.518 GR.
Still for that read-out and setting: in the case of EVSAT it was 0.327 GR; in that of HCC38, 0.436 GR; in that of HCC70, -0.0339 GR.
With HCC1143, the GR value came to 0.423 GR.
Take HCC1395: the GR value was determined as 0.63 GR.

Still in this assay, the particulars now being: 0.003162 µM.
On to EFM19, for which the GR value is 0.329 GR.
Same read-out and setting: in the case of EVSAT it was 0.292 GR; in that of HCC38, 0.282 GR.
For the cell line HCC70, the GR value is -0.217 GR.
HCC1143: the GR value was 0.398 GR.
The same measure, in the same setting: in the case of HCC1395 it was 0.375 GR.

The assay is the same for the next values; noted with them: 0.01 µM.
For EFM19, the GR value is 0.259 GR.
On the same count and under the same terms, in the case of EVSAT it was 0.215 GR.
The same measure, in the same setting: then HCC38, with 0.219 GR; and HCC70, with -0.27 GR; and HCC1143, with 0.336 GR.
Same read-out and setting: then HCC1395, with 0.275 GR.

The same assay, now with this note: 0.03162 µM.
With EFM19, the GR value was 0.219 GR.
On the same count and under the same terms, in the case of EVSAT it was 0.13 GR; in that of HCC38, 0.111 GR; in that of HCC70, -0.419 GR.
The same measure, in the same setting: in the case of HCC1143 it was 0.241 GR.
The same measure, in the same setting: then HCC1395, with 0.158 GR.

The assay is the same for the next values; noted with them: 0.1 µM.
Regarding EFM19, the GR value came to 0.134 GR.
Still for that read-out and setting: then EVSAT, with 0.0905 GR; and HCC38, with 0.0509 GR; and HCC70, with -0.484 GR.
With HCC1143, the GR value came to 0.223 GR.
Same read-out and setting: then HCC1395, with 0.0856 GR.

The assay is the same for the next values; noted with them: 0.3162 µM.
Take EFM19: the GR value worked out at 0.178 GR.
Same read-out and setting: then EVSAT, with 0.0313 GR; and HCC38, with -0.0003 GR.
The same measure, in the same setting: in the case of HCC70 it was -0.506 GR; in that of HCC1143, 0.183 GR; in that of HCC1395, 0.0979 GR.

The assay is the same for the next values; noted with them: 1 µM.
With EFM19, the GR value was 0.106 GR.
The same measure, in the same setting: in the case of EVSAT it was 0.019 GR.
Same read-out and setting: in the case of HCC38 it was -0.0242 GR.
Same read-out and setting: in the case of HCC70 it was -0.608 GR; in that of HCC1143, 0.142 GR.
Regarding HCC1395, the GR value was found to be 0.0594 GR.

Still in this assay, the particulars now being: 3.162 µM.
EFM19: the GR value is 0.149 GR.
On the same count and under the same terms, then EVSAT, with -0.0275 GR; and HCC38, with -0.079 GR; and HCC70, with -0.727 GR.
The same measure, in the same setting: then HCC1143, with 0.0598 GR; and HCC1395, with -0.0428 GR.

Still in this assay, the particulars now being: 10 µM.
As to EFM19, the GR value stood at 0.0614 GR.
For EVSAT, the GR value is -0.412 GR.
Same read-out and setting: in the case of HCC38 it was -0.393 GR; in that of HCC70, -0.871 GR; in that of HCC1143, -0.0734 GR.
The same measure, in the same setting: in the case of HCC1395 it was -0.311 GR.

Compound in another assay: T1, BSJ-03-123
The assay is described as above. As to conditions: 0.001 µM.
In the case of EFM19, the GR value came out at 0.951 GR.
Still for that read-out and setting: then EVSAT, with 0.994 GR; and HCC38, with 0.699 GR.
HCC70: the GR value worked out at 1.1 GR.
Still for that read-out and setting: then HCC1143, with 0.905 GR.
As for HCC1395, the GR value was found to be 0.847 GR.

The assay is the same for the next values; noted with them: 0.003162 µM.
Consider EFM19, for which the GR value was 0.918 GR.
Same read-out and setting: in the case of EVSAT it was 0.961 GR.
